Test results from patent US20260137820A1, “TRIFUNCTIONAL COMPOUND AND USE THEREOF” (PEKING UNIVERSITY, priority 2022, published 2026).

Assays:
HT-1080-FAP tumor = assay: PET/CT imaging in HT-1080-FAP tumor-bearing mouse model; assay type: in vivo; conditions: ^68Ga label, 18.5 MBq via tail vein, p<0.005
Method: Mouse model: Nu/Nu mice (SPF grade) were purchased from Beijing Charles River Laboratories (China) and injected subcutaneously with HT-1080-FAP cells to construct a tumor model with high FAP expression.
All PET/CT scans were carried out on Mediso nanoScan® PET 122S small animal PET/CT.
After a certain number of HT-1080-FAP tumor mice were taken and injected via the tail vein with 7.4-18.5 MBq of ^68Ga/^86Y-FAPI-04 (control) and ^68Ga/^86Y-FAPI-CB series molecules at specified time points (Note: the injection of the control and investigation molecules was separated apart by at least five half-lives of the nuclide to ensure that the radioactivity of the previous probe had almost completely decayed and was essentially completely metabolized), imaging was carried out at specified time points. In some examples, the mice were anesthetized and then sacrificed by neck breaking at a certain time point. Organs were dissected and taken for radioactivity measurement.
A ^68Ge-^68Ga generator was eluted with 5 mL of 0.6 M high-purity hydrochloric acid to obtain a Ga-68 hydrochloric acid solution. 1 mL of the Ga-68 solution after elution was taken, and 100 μL of 3 M sodium hydroxide and 130 μL of 3M sodium acetate were added to adjust the acidity to a final pH of 4.0. 12 μg of FAPI-CB-00 compound was added, and the reaction mixture was heated to 70° C. and maintained for 20 min. […]

FAP, DPP-4 and PREP = assay: Binding selectivity to homologous proteins (competitive inhibition of enzyme substrate, IC50); assay type: biochemical; conditions: from IC50 values, pNA release
Method: Taking FAP target as an example, homologous proteins thereof include, but are not limited to, DPP-4 and PREP. The structural similarity thereof may lead to a decreased binding selectivity of the modified precursor molecules for the homologous proteins, resulting in an increased uptake in non-target organs.
The binding selectivity for homologous proteins was determined by a competitive inhibition experiment on the substrate of the enzymes, and the binding/inhibition selectivity thereof is indirectly evaluated by the median inhibitory concentration (IC50) values obtained.
By reference to the method described in Extended Structure-Activity Relationship and Pharmacokinetic Investigation of (4-Quinolinoyl)glycyl-2-cyanopyrrolidine Inhibitors of Fibroblast Activation Protein (FAP). Journal of Medicinal Chemistry 57, 3053-3074 (2014), published by Jansen et al., the initial rate of p-nitroaniline (pNA) released from the substrate (absorption at 405 nm) was measured by using a microplate reader (PerkinElmer, Victor™ X5) at 37° C. in a final volume of 200 μL to determine the kinetic properties of the enzyme activity. […]
The determination method for IC50 on FAP is as follows: the substrate Z-Gly-Pro-p-nitroanilide (50 μM, Cat #G-58468, HEOWNS) was used to measure FAP activity at pH 7.4. […] The mixture was then incubated at 37° C. for 6 hours, and the release of pNA was then measured. […]

N#C[C@@H]1CC(F)(F)CN1C(=O)CNC(=O)c1ccnc2ccc(OCCCN3CCN(C(=O)[C@H](CCCCNC(=O)c4ccc(OS(=O)(=O)F)cc4)NC(=O)CN4CCN(CC(=O)O)CCN(CC(=O)O)CCN(CC(=O)O)CC4)CC3)cc12 [FAPI-CB-01]
improvement of maximum standard tumor uptake value (SUVmax) compared with FAPI-04 (HT-1080-FAP tumor): about 2 times
selectivity to FAP protein over homologous proteins DPP-4 and PREP (FAP, DPP-4 and PREP): high selectivity
